Patent US20120302629A1, “BIOMARKERS FOR GOSSYPOL CHEMOTHERAPY AND METHODS OF TREATING DISEASE” (THE REGENTS OF THE UNIVERSITY OF MICHIGAN, priority 2009, published 2012)

Tests used:
PC-3 cells [1] = assay: WST cell growth assay; assay type: cell-based, human; details: (−)-gossypol 0.5 and 1 μM, 4 days
Experimental: (§1) Cell Growth, Cell Death, and Apoptosis: Cell growth inhibition by (−)-gossypol was determined in a water-soluble tetrazolium (WST)-based assay, as described previously (Shangary et al., Proc. Natl. Acad. Sci. USA 105:3933 (2008)). Cell viability was determined by trypan blue due exclusion as described (Shangary et al., Proc. Natl. Acad. Sci. USA 105:3933 (2008)). Experiments were done in triplicate. To examine apoptosis, cells were stained with Annexin V and PI and analyzed by flow cytometery using an Annexin V-FITC staining kit (Roche Applied Science, Indianapolis, Ind.) according to manufacturer's instructions. Briefly, cells were treated and collected by centrifugation, washed with PBS once and then stained with annexinV-FITC and PI for 15 min at room temperature in the dark. Stained cells were analyzed in a FACS caliber flow cytometer. AnnexinV positive cells are considered as apoptotic cells.

MDA-MB-436 cells = assay: WST cell growth assay; assay type: cell-based, human; details: (−)-gossypol 0.5 and 1 μM, 4 days
Experimental: as §1

2LMP cells [2] = assay: WST cell growth assay; assay type: cell-based, human; details: (−)-gossypol 0.5 and 1 μM, 4 days
Experimental: as §1

PC-3 cells [3] = assay: Cell death by trypan blue dye exclusion; assay type: cell-based, human; details: 10 μM
Experimental: as §1

2LMP cells [4] = assay: Cell death by trypan blue dye exclusion; assay type: cell-based, human
Experimental: as §1

Bcl-2 = Bcl-2 (Homo sapiens, UniProt P10415); details: Wang et al., J. Med. Chem. 49:6139 (2006); cited from earlier work
Chain of Bcl-2 (P10415 whole entry): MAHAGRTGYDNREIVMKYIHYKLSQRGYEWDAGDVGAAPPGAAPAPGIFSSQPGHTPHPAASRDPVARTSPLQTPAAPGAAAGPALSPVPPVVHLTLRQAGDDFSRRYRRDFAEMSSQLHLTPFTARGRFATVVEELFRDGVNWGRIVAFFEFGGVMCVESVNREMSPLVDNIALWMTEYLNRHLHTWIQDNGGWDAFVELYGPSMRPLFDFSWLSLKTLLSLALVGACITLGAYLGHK

[5] = test system: 5 breast (MDA-MB-231, MDA-MB-436, MDA-MB-468, BT-549 and MCF-7) and 3 prostate (22Rv1, DU145 and LNCaP) cancer cell lines; assay: Western blot in 8 additional cancer cell lines; assay type: cell-based, human; details: treated for 24 h, all 8 cancer cell lines
Experimental: (§2) Western blot assay: Proteins were harvested in RIPA buffer, then electrophoresed on 4-20% gradient SDS-PAGE gels (Invitrogen, Grand Island, N.Y.) and transferred to PVDF membranes. The membranes were blocked in 5% milk and then incubated with specific primary antibody, followed by secondary antibody. The signals were visualized with the chemiluminescent HRP antibody detection reagent (Deville Scientific, Metuchen, N.J.).

MCF-12F cells = assay: Cell death (trypan blue) and western blot in normal cells; assay type: cell-based, human
Experimental: as §1, §2

HMEC cells = assay: as above; assay type: cell-based, human
Experimental: as §1, §2

FF (fibroblast) cells = assay: as above; assay type: cell-based, human
Experimental: as §1, §2

wild-type MEF cells = assay: Apoptosis (Annexin V/PI flow cytometry) in MEF cells; assay type: cell-based; details: 24 h
Experimental: as §1

MEF Bax/Bak KO cells = assay: as above; assay type: cell-based; details: for cells to undergo apoptosis: 24 h
Experimental: as §1

[6] = test system: Bcl-2 family proteins in 2LMP cells; assay: Western blot of whole cell lysates; assay type: cell-based, human
Experimental: as §2

[7] = test system: Bcl-2 family proteins in PC-3 cells; assay: Western blot of whole cell lysates; assay type: cell-based, human; details: 10 μM
Experimental: as §2

Puma mRNA in 2LMP cells = assay: Taqman real-time PCR; assay type: cell-based, human; details: 10 μm
Experimental: (§3) Real-Time PCR: Total RNA was extracted by RNA miniprep kit (Sigma) from cells treated with or without of (−)-gossypol. cDNA was synthesized from 2 μg of RNA using cDNA reverse transcription kits (Applied Biosystems). Next, Taqman gene expression assays were performed using Noxa (Hs00560402_ml), Puma (Hs00248075_ml), Mcl-1 (Hs00172036_ml) gene specific primers/probe sets for real-time PCR in a ABI7900HT PCR machine. GAPDH (Hs99999905_ml) was used for normalization. Relative quantitation of mRNA was calculated by comparative cycle threshold (Ct) method.

Noxa mRNA in 2LMP cells = assay: Taqman real-time PCR; assay type: cell-based, human; details: 10 μm
Experimental: as §3

[8] = test system: long form of Mcl-1 mRNA in 2LMP cells; assay: Taqman real-time PCR; assay type: cell-based, human; details: 10 μm, 5-10 h time-points
Experimental: as §3

2LMP cells [9] = assay: Apoptosis (Annexin V/PI flow cytometry) after siRNA knock-down; assay type: cell-based, human
Experimental: as §1
RNA interference: Gene specific double-stranded RNA oligonucleotide targeting Noxa, Puma, c-Myc, HIF1-α, E2F1#2, Bax, Bak, were purchased from Dharmacon RNAi technologies as Sigenome on-targetplus SMARTpool duplex (Lafayette, Colo.). SiRNA of E2F#1 was purchased from Santa Cruz. As a negative control, siRNA against GFP target sequence 5′-[…]-3′ was employed (Qiagen, Valencia, Calif.). Transfections were performed using Lipofectamine RNAiMAX, according to manufacturer's instructions (Invitrogen, Carlsbad, Calif.). (−)-Gossypol was added 24 h after transfection and cells were harvested after 18 h treatment of (−)-gossypol. Three independent knock down experiments were performed for each gene.

DU145 cells = assay: Cell death (trypan blue) after siRNA knock-down; assay type: cell-based, human
Experimental: as §1
RNA interference: Gene specific double-stranded RNA oligonucleotide targeting Noxa, Puma, c-Myc, HIF1-α, E2F1#2, Bax, Bak, were purchased from Dharmacon RNAi technologies as Sigenome on-targetplus SMARTpool duplex (Lafayette, Colo.). SiRNA of E2F#1 was purchased from Santa Cruz. As a negative control, siRNA against GFP target sequence 5′-[…]-3′ was employed (Qiagen, Valencia, Calif.). […]

## Cc1cc2c(C(C)C)c(O)c(O)c(C=O)c2c(O)c1-c1c(C)cc2c(C(C)C)c(O)c(O)c(C=O)c2c1O [(−)-gossypol]
PC-3 cells [1]
  sensitization to ABT-737: effectively sensitize
MDA-MB-436 cells
  sensitization to ABT-737: effectively sensitize
2LMP cells [2]
  sensitization to ABT-737: effectively sensitize
PC-3 cells [3]; 24 hour-treatment
  cells to undergo cell death: 30-40%
PC-3 cells [3]; 24 h time-point
  cells lost their viability: approximately 40%
PC-3 cells [3]; 36 h time-point
  cells lost their viability: approximately 70%
PC-3 cells [3]; 48 h time-point
  cells lost their viability: ~100%
PC-3 cells [3]; time course
  cell death at time-points earlier than 12 h: no significant cell death
2LMP cells [4]; 2.5 μM, 48 h treatment
  cells killed: 14%
2LMP cells [4]; 10 μM, 24 hour-treatment (FIG. 1)
  cells to undergo cell death: 30-40%
2LMP cells [4]; 10 μM, 24 h time-point
  cells lost their viability: approximately 40%
2LMP cells [4]; 10 μM, 36 h time-point
  cells lost their viability: approximately 70%
2LMP cells [4]; 10 μM, 48 h time-point
  cells lost their viability: ~100%
2LMP cells [4]; 10 μM, time course
  cell death at time-points earlier than 12 h: no significant cell death
Bcl-2
  binding affinity: low to sub-micromolar
[5]
  lowest concentration with significant upregulation of Noxa: 2.5 µM
MCF-12F cells; 24-48 h treatment at 10 μM
  Noxa induction: not induced
MCF-12F cells; compared to 2LMP cells
  cell death: minimal cell death
HMEC cells; 24-48 h treatment at 10 μM
  Noxa induction: not induced
HMEC cells; compared to 2LMP cells
  cell death: minimal cell death
FF (fibroblast) cells; 24-48 h treatment at 10 μM
  Noxa induction: not induced
FF (fibroblast) cells; compared to 2LMP cells
  cell death: minimal cell death
wild-type MEF cells; 5 μM
  cells to undergo apoptosis: 29%
wild-type MEF cells; 10 μM
  cells to undergo apoptosis: 33%
MEF Bax/Bak KO cells; 5 μM
  cells to undergo apoptosis: 11%
MEF Bax/Bak KO cells; 10 μM
  cells to undergo apoptosis: 13%
MEF Bax/Bak KO cells; 20 μM, versus wild-type MEF
  cell death reduced in the Bax/Bak double knock-out: 25%
[6]; 10 μM
  earliest time of clear Noxa protein induction: 4 h
  earliest time of dramatic induction of the short forms of Mcl-1: 8 h
  time of Puma protein upregulation: 8 h
[6]; 10 μM, 12 h time-point
  Bcl-xL protein level: significant down-regulation
[6]; 24-h treatment (FIG. 8A)
  lowest concentration with clear induction of Noxa and Puma: 2.5 µM
[7]
  earliest time of clear Noxa protein induction: 4 h
  earliest time of dramatic induction of the short forms of Mcl-1: 8 h
  time of Puma protein upregulation: 8 h
Puma mRNA in 2LMP cells; 2.5 h time-point
  Puma mRNA increased: 1.4 fold
Puma mRNA in 2LMP cells; 5 h time-point
  Puma mRNA increased: 5.4 fold
Puma mRNA in 2LMP cells; 7.5 h time-point
  Puma mRNA increased: 5 fold
Puma mRNA in 2LMP cells; 10 h time-point
  Puma mRNA increased: 4.3 fold
Noxa mRNA in 2LMP cells; 2.5 h time-point
  mRNA levels of Noxa increased: 2.3 fold
Noxa mRNA in 2LMP cells; 5 h time-point
  mRNA levels of Noxa increased: 9 fold
Noxa mRNA in 2LMP cells; 7.5 h time-point
  mRNA levels of Noxa increased: 24 fold
Noxa mRNA in 2LMP cells; 10 h time-point
  mRNA levels of Noxa increased: 37 fold
[8]
  increase of the long form of Mcl-1 mRNA: less than 3 fold
2LMP cells [9]; 10 μM, 18 h, Bax and Bak siRNA
  apoptosis induction blocked by double knockdown of Bax/Bak: approximately 70%
2LMP cells [9]; 10 μM, c-Myc siRNA
  cell death induction blocked by knock-down of c-Myc: > 70%
2LMP cells [9]; 18 h, Puma siRNA
  apoptosis induction decreased by knock-down of Puma: 30-50%
2LMP cells [9]; all the concentrations tested, 18 h, Noxa siRNA
  apoptosis induction reduced by knock-down of Noxa: > 50%
DU145 cells; 18 h, Bax and Bak siRNA
  effect of double knockdown of Bax/Bak on apoptosis induction: modestly reduced
DU145 cells; p53-mutated, c-Myc siRNA
  cell death induction upon c-Myc knock-down: effective blockage
